According to PubChem BioAssay AID330 (DTP/NCI, 2004):
Several values for one entry are separate records, joined by “and”; a condition that tells them apart may be missing. Equal entries are not always repeated. Toxic doses and inconclusive results are not listed.

Tested on: P388 leukemia ip, CD2F1 mice, survival T/C
Assay: NCI In Vivo Anticancer Drug Screen. Data for tumor model P388 Leukemia (intraperitoneal) in CD2F1 (CDF1) mice
Settings: endpoint: median survival time, higher = longer survival
Outline: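 Mice carrying the transplanted tumor received test compound or vehicle. Survival was recorded in each group, and the value is the treated-group measurement divided by that of the vehicle-treated control group.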

[1] = dose: 25.0 mg/kg/injection, schedule: Q01DX009 (ip), vehicle: saline with Tween-80
[2] = dose: 50.0 mg/kg/injection, schedule: Q01DX009 (ip), vehicle: saline with Tween-80
[3] = dose: 100.0 mg/kg/injection, schedule: Q01DX009 (ip), vehicle: saline with Tween-80
[4] = dose: 200.0 mg/kg/injection, schedule: Q01DX009 (ip), vehicle: saline with Tween-80
[5] = dose: 25.0 mg/kg/injection, schedule: Q01DX009 (ip), vehicle: Klucel (hydroxypropylcellulose) (HPC)
[6] = dose: 50.0 mg/kg/injection, schedule: Q01DX009 (ip), vehicle: Klucel (hydroxypropylcellulose) (HPC)
[7] = dose: 100.0 mg/kg/injection, schedule: Q01DX009 (ip), vehicle: Klucel (hydroxypropylcellulose) (HPC)
[8] = dose: 60.0 mg/kg/injection, schedule: Q01DX005 (ip), vehicle: saline
[9] = dose: 50.0 mg/kg/injection, schedule: Q01DX005 (ip), vehicle: saline with Tween-80
[10] = dose: 100.0 mg/kg/injection, schedule: Q01DX005 (ip), vehicle: saline with Tween-80
[11] = dose: 50.0 mg/kg/injection, schedule: Q01DX005 (ip), vehicle: Klucel (hydroxypropylcellulose) (HPC)
[12] = dose: 100.0 mg/kg/injection, schedule: Q01DX005 (ip), vehicle: Klucel (hydroxypropylcellulose) (HPC)
[13] = dose: 200.0 mg/kg/injection, schedule: Q01DX005 (ip), vehicle: Klucel (hydroxypropylcellulose) (HPC)

With `CCCCN1CS[C@@H]2CCCC[C@H]21` the T/C (dose: 21.0 mg/kg/injection, schedule: Q01DX005 (ip), vehicle: Klucel (hydroxypropylcellulose) (HPC)) was 104 % of control, the T/C (dose: 42.0 mg/kg/injection, schedule: Q01DX005 (ip), vehicle: Klucel (hydroxypropylcellulose) (HPC)) was 113 % of control and the T/C (dose: 84.0 mg/kg/injection, schedule: Q01DX005 (ip), vehicle: Klucel (hydroxypropylcellulose) (HPC)) was 116 % of control.
With `O=C1N=C2OC3(CCCCC3)OC(=O)N2C2(CCCCC2)O1` the T/C (dose: 12.5 mg/kg/injection, schedule: Q01DX009 (ip), vehicle: distilled water + Tween-80) was 107 % of control, the T/C (dose: 25.0 mg/kg/injection, schedule: Q01DX009 (ip), vehicle: distilled water + Tween-80) was 93 % of control and the T/C (dose: 50.0 mg/kg/injection, schedule: Q01DX009 (ip), vehicle: distilled water + Tween-80) was 97 % of control. The T/C (dose: 100.0 mg/kg/injection, schedule: Q01DX009 (ip), vehicle: distilled water + Tween-80) was 100 % of control and 96 % of control and the T/C (dose: 200.0 mg/kg/injection, schedule: Q01DX009 (ip), vehicle: distilled water + Tween-80) was 109 % of control and 114 % of control.
`C/C=C1\CN2CCC34c5ccccc5N5C(C6C7CC8N(CCC89c8ccccc8N(C(C)=O)C69)C/C7=C\C)OCC(C1CC23)C54` (stereo not drawn) was tested, and the T/C (dose: 12.06 mg/kg/injection, schedule: Q01DX009 (ip), vehicle: saline with Tween-80) was 100 % of control, the T/C (dose: 24.12 mg/kg/injection, schedule: Q01DX009 (ip), vehicle: saline with Tween-80) was 107 % of control and the T/C (dose: 48.25 mg/kg/injection, schedule: Q01DX009 (ip), vehicle: saline with Tween-80) was 109 % of control.
In the case of `CC1(C)CC(=O)C(CC2C(=O)CC(C)(C)CC2=O)C(=O)C1`, the T/C [1] was 87 % of control, the T/C [2] was 97 % of control and the T/C [3] was 103 % of control. For the same molecule, the T/C [4] was 95 % of control.
In the case of `[N-]=[N+]=NC1=CC(=O)C(c2ccccc2)=CC1=O`, the T/C [1] was 100 % of control, the T/C [2] was 95 % of control and the T/C [4] was 103 % of control.
For `O=C(C#Cc1ccccc1)c1ccccc1`, the T/C (dose: 12.5 mg/kg/injection, schedule: Q01DX009 (ip), vehicle: saline with Tween-80) was 122 % of control and 124 % of control, the T/C [1] was 98 % of control and the T/C [2] was 121 % of control.
For `OC1C2CC3CC(C2)CC1(C#CC1(O)C2CC4CC(C2)CC1C4)C3` (stereo not drawn), the T/C [5] was 100 % of control, the T/C [6] was 100 % of control and the T/C [7] was 93 % of control.
In the case of `CCN=C(Cl)N(C)c1ccccc1`, the T/C [6] was 100 % of control and the T/C [7] was 95 % of control.
For `COC(=O)CCCCc1ccc(CCCCC(=O)OC)c2ccccc12`, the T/C (dose: 50.0 mg/kg/injection, schedule: Q01DX009 (ip), vehicle: other) was 103 % of control, the T/C (dose: 100.0 mg/kg/injection, schedule: Q01DX009 (ip), vehicle: other) was 100 % of control and the T/C (dose: 200.0 mg/kg/injection, schedule: Q01DX009 (ip), vehicle: other) was 97 % of control.
`CCc1[nH]nc(-c2n[nH]c(CC)c2C)c1C` was tested, and the T/C [8] was 100 % of control, the T/C (dose: 120.0 mg/kg/injection, schedule: Q01DX005 (ip), vehicle: saline) was 102 % of control and the T/C (dose: 240.0 mg/kg/injection, schedule: Q01DX005 (ip), vehicle: saline) was 98 % of control.
With `Cc1ccc2nc(N/N=C/c3cccc(C)n3)cc(C)c2c1` the T/C (dose: 12.5 mg/kg/injection, schedule: Q01DX005 (ip), vehicle: saline with Tween-80) was 100 % of control, the T/C (dose: 25.0 mg/kg/injection, schedule: Q01DX005 (ip), vehicle: saline with Tween-80) was 90 % of control and the T/C [9] was 100 % of control and 93 % of control. The T/C [10] was 100 % of control.
In the case of `C=C1C(=O)OC2C/C(C=O)=C/CC/C(C)=C/C(O)C12` (stereo not drawn), the T/C (dose: 9.0 mg/kg/injection, schedule: Q01DX005 (ip), vehicle: Klucel (hydroxypropylcellulose) (HPC)) was 96 % of control, the T/C (dose: 18.0 mg/kg/injection, schedule: Q01DX005 (ip), vehicle: Klucel (hydroxypropylcellulose) (HPC)) was 99 % of control and the T/C (dose: 36.0 mg/kg/injection, schedule: Q01DX005 (ip), vehicle: Klucel (hydroxypropylcellulose) (HPC)) was 105 % of control. For the same molecule, the T/C (dose: 72.0 mg/kg/injection, schedule: Q01DX005 (ip), vehicle: Klucel (hydroxypropylcellulose) (HPC)) was 106 % of control.
In the case of `COc1ccccc1P(=O)(CCP(=O)(c1ccccc1)c1ccccc1OC)c1ccccc1` (stereo not drawn), the T/C [11] was 103 % of control, the T/C [12] was 97 % of control and the T/C [13] was 91 % of control.
In the case of `CC1(C)CCC/C(=C\c2ccccc2)C1(O)c1ccccn1` (stereo not drawn), the T/C [2] was 97 % of control, the T/C [3] was 98 % of control and the T/C [4] was 100 % of control.
For `Clc1ccc2nc(Cl)[nH]c2c1`, the T/C [11] was 102 % of control, the T/C [12] was 100 % of control and the T/C [13] was 99 % of control.
In the case of `C=C1C[C@H](C2OC3OC(C)(C)OC3C2OCc2ccccc2)OC1=O` (stereo partly drawn), the T/C [9] was 97 % of control, the T/C [10] was 98 % of control and the T/C (dose: 200.0 mg/kg/injection, schedule: Q01DX005 (ip), vehicle: saline with Tween-80) was 100 % of control.
`Cc1cccc(-n2c(-c3ccc([N+](=O)[O-])cc3)csc2=NC(=O)c2cccc([N+](=O)[O-])c2)c1C` was tested, and the T/C [2] was 91 % of control, the T/C [3] was 87 % of control and the T/C [4] was 87 % of control.
In the case of `c1cc[c]([Bi]([c]2ccccc2)[c]2ccccc2)cc1`, the T/C (dose: 12.5 mg/kg/injection, schedule: Q01DX009 (ip), vehicle: Klucel (hydroxypropylcellulose) (HPC)) was 103 % of control, the T/C [5] was 106 % of control and the T/C [6] was 101 % of control and 112 % of control.
`c1ccc([P+](c2ccccc2)(c2ccccc2)c2ccccc2)cc1` was tested, and the T/C (dose: 0.63 mg/kg/injection, schedule: Q04DX003 (ip), vehicle: saline) was 100 % of control, the T/C (dose: 1.25 mg/kg/injection, schedule: Q04DX003 (ip), vehicle: saline) was 118 % of control and the T/C (dose: 2.5 mg/kg/injection, schedule: Q04DX003 (ip), vehicle: saline) was 122 % of control. For the same molecule, the T/C (dose: 3.3 mg/kg/injection, schedule: Q04DX003 (ip), vehicle: saline) was 122 % of control.
For `C[N+](C)([O-])c1ccc(C(=O)C2CCCCC2)cc1`, the T/C (dose: 100.0 mg/kg/injection, schedule: Q04DX002 (ip), vehicle: saline) was 101 % of control, the T/C (dose: 200.0 mg/kg/injection, schedule: Q04DX002 (ip), vehicle: saline) was 99 % of control and the T/C (dose: 400.0 mg/kg/injection, schedule: Q04DX002 (ip), vehicle: saline) was 103 % of control.
With `CCCCCCCCCCCCOc1ccccc1` the T/C [2] was 100 % of control, the T/C [3] was 104 % of control and the T/C [4] was 100 % of control.
In the case of `COc1cc2c(cc1OC)C13CCN4C=C5CCOC6CC(=O)N2C1C6C5CC43` (stereo not drawn), the T/C (dose: 15.0 mg/kg/injection, schedule: Q01DX005 (ip), vehicle: saline) was 97 % of control, the T/C (dose: 30.0 mg/kg/injection, schedule: Q01DX005 (ip), vehicle: saline) was 98 % of control and the T/C [8] was 100 % of control and 103 % of control.
`O=NNc1ccc2ccccc2n1` was tested, and the T/C (dose: 3.12 mg/kg/injection, schedule: Q01DX009 (ip), vehicle: water) was 122 % of control and the T/C (dose: 25.0 mg/kg/injection, schedule: Q01DX009 (ip), vehicle: water) was 91 % of control and 94 % of control.
With `CCCCCCCCCCCCOc1ccccc1C(=O)O` the T/C (dose: 6.25 mg/kg/injection, schedule: Q04DX003 (ip), vehicle: saline sonified) was 100 % of control, the T/C (dose: 12.5 mg/kg/injection, schedule: Q04DX003 (ip), vehicle: saline sonified) was 100 % of control and the T/C (dose: 25.0 mg/kg/injection, schedule: Q04DX003 (ip), vehicle: saline sonified) was 100 % of control.
For `CCc1ccccc1NC(=O)C(C#N)C1=C(Cl)C(=O)c2ccccc2C1=O` (stereo not drawn), the T/C (dose: 60.0 mg/kg/injection, schedule: Q01DX005 (ip), vehicle: saline with Tween-80) was 113 % of control and the T/C (dose: 120.0 mg/kg/injection, schedule: Q01DX005 (ip), vehicle: saline with Tween-80) was 106 % of control.
`COc1ccc(-n2c(C)c(COC(C)=O)c(COC(C)=O)c2C)cc1` was tested, and the T/C (dose: 12.5 mg/kg/injection, schedule: Q01DX009 (ip), vehicle: saline) was 157 % of control and 163 % of control.
For `O=c1c(Cc2ccccc2)c([O-])[n+](Cc2ccccc2)c(-c2ccccc2)n1-c1ccccc1`, the T/C (dose: 60.0 mg/kg/injection, schedule: Q01DX005 (ip), vehicle: Klucel (hydroxypropylcellulose) (HPC)) was 98 % of control, the T/C (dose: 120.0 mg/kg/injection, schedule: Q01DX005 (ip), vehicle: Klucel (hydroxypropylcellulose) (HPC)) was 91 % of control and the T/C (dose: 240.0 mg/kg/injection, schedule: Q01DX005 (ip), vehicle: Klucel (hydroxypropylcellulose) (HPC)) was 90 % of control.
With `c1ccc2c(Cc3nn[nH]n3)noc2c1` the T/C [2] was 109 % of control, the T/C [3] was 107 % of control and the T/C [4] was 100 % of control.
In the case of `O=C1c2ccccc2C(=O)N1Cc1ccc(Cl)cc1[N+](=O)[O-]`, the T/C [11] was 103 % of control, the T/C [12] was 109 % of control and the T/C [13] was 98 % of control.
